Kd data for 2 molecules are collected here from paper PMC7298650 (iScience, 2020).

Test [1] deals with T1, insulin receptor (Homo sapiens, UniProt P06213). In words: surface plasmon resonance. In kind it is binding. In general terms: Surface plasmon resonance follows binding to a sensor surface in real time, without labels.
In test [2] the target is T1, insulin receptor. In words: surface plasmon resonance. In kind it is binding. This is another data set of the same source.

pKd: −log10 of the molar value. Like-named read-outs stand apart in the source and are kept apart here.

T1 sequence (P06213 28-758): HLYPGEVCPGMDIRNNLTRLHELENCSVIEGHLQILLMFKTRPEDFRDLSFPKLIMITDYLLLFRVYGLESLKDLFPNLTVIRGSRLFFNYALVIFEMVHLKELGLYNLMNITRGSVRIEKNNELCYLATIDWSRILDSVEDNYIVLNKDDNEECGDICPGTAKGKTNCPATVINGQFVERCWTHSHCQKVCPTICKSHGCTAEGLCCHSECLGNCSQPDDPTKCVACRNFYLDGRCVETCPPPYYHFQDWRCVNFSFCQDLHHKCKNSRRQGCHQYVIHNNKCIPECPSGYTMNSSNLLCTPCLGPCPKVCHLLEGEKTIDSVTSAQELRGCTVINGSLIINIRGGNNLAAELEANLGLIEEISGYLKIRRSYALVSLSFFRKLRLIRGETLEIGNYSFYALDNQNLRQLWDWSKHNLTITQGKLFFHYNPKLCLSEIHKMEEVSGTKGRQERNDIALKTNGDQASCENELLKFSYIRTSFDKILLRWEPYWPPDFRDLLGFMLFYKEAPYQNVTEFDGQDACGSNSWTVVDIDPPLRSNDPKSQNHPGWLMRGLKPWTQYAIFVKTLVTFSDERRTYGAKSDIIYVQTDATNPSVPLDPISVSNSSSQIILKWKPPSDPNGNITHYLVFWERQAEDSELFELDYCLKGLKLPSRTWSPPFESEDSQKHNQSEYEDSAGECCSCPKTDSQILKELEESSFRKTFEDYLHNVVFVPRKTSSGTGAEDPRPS
T1 sequence (P06213 763-956): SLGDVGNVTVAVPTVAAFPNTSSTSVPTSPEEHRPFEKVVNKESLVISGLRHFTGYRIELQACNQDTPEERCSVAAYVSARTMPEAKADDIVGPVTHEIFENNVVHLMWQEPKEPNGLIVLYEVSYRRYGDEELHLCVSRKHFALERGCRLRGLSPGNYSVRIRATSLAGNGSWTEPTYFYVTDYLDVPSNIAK

Broadly, the pKd is the negative decadic logarithm of the Kd, by convention in mol/L. Low readings indicate a high Kd, high ones a low Kd. With `O=c1c2ccccc2nc2n1CCc1c-2[nH]c2ccccc12` [Rut-0, Rutaecarpine], the pKd on insulin receptor [1] was about 4.85. With `CN(C)C(=N)N=C(N)N` [Metformin], the pKd on insulin receptor [2] was about 4.08.
